Source: ChEMBL document CHEMBL1201862, “PubChem BioAssay data set” (2004)
Each block holds one compound with its values, some of them ahead of it. Active and inactive are the calls of the source.

Columns and labels:
[1] = target: T1, Oxysterols receptor LXR-beta (Homo sapiens, UniProt P55055); format: functional, cell-based;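 further: Cell-based luminescence dose-response assay of agonist activity at LXR, run as a confirmatory counterscreen to a daf-12 agonist screen; agonist potency from rising luciferase signal of a Gal4-LXR reporter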
T1 sequence (P55055 whole entry): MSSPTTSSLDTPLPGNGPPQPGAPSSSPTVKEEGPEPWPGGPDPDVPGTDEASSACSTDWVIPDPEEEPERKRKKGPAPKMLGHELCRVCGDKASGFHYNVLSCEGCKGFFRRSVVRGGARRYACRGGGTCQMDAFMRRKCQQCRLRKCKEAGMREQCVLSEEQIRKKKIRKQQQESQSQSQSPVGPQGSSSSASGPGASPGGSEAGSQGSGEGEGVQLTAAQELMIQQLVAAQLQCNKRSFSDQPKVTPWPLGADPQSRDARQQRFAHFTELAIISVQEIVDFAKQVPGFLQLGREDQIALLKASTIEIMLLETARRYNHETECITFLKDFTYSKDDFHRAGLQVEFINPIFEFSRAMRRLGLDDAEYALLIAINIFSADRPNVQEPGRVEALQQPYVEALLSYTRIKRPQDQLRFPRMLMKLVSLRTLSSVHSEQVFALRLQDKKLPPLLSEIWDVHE

[2] = target: T1, Oxysterols receptor LXR-beta; assay: LXR agonists, Gal4 luciferase reporter, dose response, counter-screen for ssDAF-12 agonist project, cell-based, luminescence, HEK293, S. stercoralis campaign (AID 720737); format: functional; settings: read-out: IC50 (the source's name)
[3] = target: T2, Sentrin-specific protease 8 (Homo sapiens, UniProt Q96LD8); assay: inhibition of human SENP8 cleavage activity – biochemical, luminescence, SAR follow-up (AID 504501); format: functional
T2 sequence (Q96LD8 whole entry): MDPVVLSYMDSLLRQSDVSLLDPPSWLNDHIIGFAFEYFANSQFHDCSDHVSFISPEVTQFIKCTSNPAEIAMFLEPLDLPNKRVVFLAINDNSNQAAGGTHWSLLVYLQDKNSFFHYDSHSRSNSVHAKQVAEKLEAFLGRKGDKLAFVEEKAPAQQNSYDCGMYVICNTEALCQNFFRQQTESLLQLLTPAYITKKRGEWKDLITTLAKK

[4] = target: Kappa-type opioid receptor (Homo sapiens, UniProt P41145); format: functional
Sequence of Kappa-type opioid receptor (P41145 whole entry): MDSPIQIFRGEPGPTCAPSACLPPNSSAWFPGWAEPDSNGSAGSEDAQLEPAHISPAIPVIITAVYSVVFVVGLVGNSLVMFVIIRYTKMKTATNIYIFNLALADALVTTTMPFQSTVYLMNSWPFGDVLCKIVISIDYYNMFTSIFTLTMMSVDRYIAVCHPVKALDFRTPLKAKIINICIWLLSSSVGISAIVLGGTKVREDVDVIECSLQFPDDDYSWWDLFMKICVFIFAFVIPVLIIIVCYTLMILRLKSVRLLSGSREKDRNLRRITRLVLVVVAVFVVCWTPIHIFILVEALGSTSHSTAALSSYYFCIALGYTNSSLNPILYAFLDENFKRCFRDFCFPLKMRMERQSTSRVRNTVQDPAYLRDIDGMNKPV

BJ = assay: BJ-TERT-LT-ST fibroblast viability loss – cell-based, RAS-independent, luminescence, dose response (AID 1935); format: functional; settings: Homo sapiens;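 further: BJ fibroblasts immortalized with TERT plus LT and ST oncogenes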
[5] = target: T3, Histone-lysine N-methyltransferase NSD2 (Homo sapiens, UniProt O96028); format: biochemical
T3 sequence (O96028 whole entry): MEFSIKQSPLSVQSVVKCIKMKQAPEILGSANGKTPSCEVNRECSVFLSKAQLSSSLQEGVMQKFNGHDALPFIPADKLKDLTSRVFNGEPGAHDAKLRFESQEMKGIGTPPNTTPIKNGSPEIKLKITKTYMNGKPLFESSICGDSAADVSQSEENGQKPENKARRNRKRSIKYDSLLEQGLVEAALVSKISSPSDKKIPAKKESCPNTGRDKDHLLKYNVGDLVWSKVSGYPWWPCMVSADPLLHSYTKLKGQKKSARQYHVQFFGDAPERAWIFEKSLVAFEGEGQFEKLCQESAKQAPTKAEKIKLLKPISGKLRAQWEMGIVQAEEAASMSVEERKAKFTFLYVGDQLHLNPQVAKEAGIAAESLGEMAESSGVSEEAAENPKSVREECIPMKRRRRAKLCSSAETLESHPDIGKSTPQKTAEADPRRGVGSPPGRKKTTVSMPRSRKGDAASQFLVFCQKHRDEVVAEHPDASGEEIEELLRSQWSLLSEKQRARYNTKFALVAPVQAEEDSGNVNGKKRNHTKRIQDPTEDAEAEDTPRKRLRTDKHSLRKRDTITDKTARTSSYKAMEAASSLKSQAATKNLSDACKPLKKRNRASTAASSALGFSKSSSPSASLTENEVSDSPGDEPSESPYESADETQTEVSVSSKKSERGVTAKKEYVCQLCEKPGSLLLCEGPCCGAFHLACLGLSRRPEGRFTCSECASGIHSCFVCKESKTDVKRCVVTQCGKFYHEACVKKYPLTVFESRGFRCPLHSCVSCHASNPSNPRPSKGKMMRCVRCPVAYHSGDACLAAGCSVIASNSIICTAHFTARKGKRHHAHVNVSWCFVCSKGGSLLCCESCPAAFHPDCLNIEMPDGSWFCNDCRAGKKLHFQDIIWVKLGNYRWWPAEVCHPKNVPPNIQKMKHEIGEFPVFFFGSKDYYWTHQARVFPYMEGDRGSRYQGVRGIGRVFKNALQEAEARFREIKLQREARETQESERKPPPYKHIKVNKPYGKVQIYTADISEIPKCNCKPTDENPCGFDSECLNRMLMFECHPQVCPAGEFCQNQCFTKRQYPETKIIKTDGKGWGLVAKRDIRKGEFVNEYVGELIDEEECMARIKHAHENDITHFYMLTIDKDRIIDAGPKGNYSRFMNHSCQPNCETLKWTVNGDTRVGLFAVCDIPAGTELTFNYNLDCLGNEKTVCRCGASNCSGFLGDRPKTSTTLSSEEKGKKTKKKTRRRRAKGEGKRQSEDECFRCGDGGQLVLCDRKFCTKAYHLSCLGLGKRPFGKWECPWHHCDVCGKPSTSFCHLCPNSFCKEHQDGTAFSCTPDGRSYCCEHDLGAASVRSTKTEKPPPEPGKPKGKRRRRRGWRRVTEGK

[6] = target: Tyrosine-protein kinase ABL1 (Homo sapiens, UniProt P00519); format: functional
Sequence of Tyrosine-protein kinase ABL1 (P00519 whole entry): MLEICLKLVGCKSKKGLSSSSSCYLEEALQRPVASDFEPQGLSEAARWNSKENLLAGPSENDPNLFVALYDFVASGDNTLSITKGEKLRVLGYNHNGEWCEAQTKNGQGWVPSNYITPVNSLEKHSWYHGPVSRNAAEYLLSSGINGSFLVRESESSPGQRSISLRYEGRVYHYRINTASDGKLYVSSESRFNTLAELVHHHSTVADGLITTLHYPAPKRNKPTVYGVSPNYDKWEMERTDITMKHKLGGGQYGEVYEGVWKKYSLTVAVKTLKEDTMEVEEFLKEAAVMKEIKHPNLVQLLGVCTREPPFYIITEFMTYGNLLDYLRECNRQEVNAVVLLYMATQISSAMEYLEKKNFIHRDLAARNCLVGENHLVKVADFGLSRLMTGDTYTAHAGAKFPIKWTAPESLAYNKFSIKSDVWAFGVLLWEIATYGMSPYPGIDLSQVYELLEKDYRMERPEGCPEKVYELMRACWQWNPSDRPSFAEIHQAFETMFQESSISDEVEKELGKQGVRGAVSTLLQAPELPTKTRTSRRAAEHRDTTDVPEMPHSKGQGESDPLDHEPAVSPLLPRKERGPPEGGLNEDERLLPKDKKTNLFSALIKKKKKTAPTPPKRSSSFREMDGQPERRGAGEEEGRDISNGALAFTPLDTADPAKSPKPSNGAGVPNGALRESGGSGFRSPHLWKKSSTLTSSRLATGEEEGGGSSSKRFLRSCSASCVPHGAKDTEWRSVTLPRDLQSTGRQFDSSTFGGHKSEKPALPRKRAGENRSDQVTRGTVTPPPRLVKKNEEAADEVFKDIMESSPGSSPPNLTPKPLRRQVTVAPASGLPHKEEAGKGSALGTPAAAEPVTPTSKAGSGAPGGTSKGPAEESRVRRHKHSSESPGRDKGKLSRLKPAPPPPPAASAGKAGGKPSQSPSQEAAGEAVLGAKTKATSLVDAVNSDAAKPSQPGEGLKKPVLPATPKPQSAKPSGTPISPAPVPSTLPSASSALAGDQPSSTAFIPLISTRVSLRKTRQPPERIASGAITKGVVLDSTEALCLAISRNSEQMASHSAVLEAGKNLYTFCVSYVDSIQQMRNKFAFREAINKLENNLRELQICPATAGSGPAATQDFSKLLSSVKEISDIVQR

SRSF protein kinase 1 = SRSF protein kinase 1 (Homo sapiens, UniProt Q96SB4); format: functional;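 further: measured as one member of a kinome-wide kinase profiling panel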
[7] = target: Serine/threonine-protein kinase TBK1 (Homo sapiens, UniProt Q9UHD2); assay: Navigating the Kinome. Panel member name: TBK1; format: functional
Sequence of Serine/threonine-protein kinase TBK1 (Q9UHD2 whole entry): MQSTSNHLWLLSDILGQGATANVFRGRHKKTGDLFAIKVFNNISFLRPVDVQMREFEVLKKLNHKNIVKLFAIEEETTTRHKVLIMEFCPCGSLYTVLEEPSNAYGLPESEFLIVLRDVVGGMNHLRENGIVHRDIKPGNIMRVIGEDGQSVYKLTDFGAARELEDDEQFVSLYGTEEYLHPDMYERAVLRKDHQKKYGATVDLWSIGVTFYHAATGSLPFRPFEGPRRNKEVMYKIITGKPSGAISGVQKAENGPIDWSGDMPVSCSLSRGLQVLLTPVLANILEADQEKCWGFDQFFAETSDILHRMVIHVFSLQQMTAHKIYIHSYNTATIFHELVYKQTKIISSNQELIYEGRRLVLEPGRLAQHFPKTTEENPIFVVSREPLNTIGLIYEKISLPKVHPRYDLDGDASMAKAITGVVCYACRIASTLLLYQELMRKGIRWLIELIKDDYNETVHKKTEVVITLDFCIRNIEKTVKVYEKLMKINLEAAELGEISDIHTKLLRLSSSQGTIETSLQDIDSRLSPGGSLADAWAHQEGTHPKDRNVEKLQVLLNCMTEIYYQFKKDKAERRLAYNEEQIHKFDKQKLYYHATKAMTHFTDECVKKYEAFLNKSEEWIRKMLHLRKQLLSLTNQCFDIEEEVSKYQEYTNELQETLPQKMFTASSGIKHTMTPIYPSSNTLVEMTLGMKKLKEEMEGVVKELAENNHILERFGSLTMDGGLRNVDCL

[8] = target: Cyclin-dependent kinase 1 (Homo sapiens, UniProt P06493); format: functional;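 further: Kinome-wide panel profiling, with the target listed as panel member CDC2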
Sequence of Cyclin-dependent kinase 1 (P06493 whole entry): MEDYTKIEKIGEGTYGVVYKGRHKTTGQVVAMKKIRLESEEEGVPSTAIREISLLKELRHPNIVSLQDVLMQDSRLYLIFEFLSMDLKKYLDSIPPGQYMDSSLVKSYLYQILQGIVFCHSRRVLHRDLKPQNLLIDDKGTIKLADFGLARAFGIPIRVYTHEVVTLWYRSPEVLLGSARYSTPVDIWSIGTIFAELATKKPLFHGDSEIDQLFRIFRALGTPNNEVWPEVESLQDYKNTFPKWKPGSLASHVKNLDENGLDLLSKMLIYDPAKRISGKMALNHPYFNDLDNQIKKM

[9] = target: Calcium/calmodulin-dependent protein kinase type 1 (Homo sapiens, UniProt Q14012); format: functional
Sequence of Calcium/calmodulin-dependent protein kinase type 1 (Q14012 whole entry): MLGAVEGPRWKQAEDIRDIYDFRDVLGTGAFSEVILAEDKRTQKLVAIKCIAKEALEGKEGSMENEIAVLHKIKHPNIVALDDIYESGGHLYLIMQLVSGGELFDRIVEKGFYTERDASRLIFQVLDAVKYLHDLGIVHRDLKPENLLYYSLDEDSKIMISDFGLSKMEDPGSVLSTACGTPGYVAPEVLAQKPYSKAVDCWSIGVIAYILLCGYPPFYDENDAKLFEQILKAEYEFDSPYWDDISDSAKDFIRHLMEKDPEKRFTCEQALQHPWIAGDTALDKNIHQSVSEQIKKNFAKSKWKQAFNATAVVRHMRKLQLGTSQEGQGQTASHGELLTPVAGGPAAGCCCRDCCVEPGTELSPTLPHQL

[10] = target: Tyrosine-protein kinase Blk (Homo sapiens, UniProt P51451); format: functional;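 further: obtained as one member of a kinome-wide kinase assay panel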
Sequence of Tyrosine-protein kinase Blk (P51451 whole entry, the tested form may be a part): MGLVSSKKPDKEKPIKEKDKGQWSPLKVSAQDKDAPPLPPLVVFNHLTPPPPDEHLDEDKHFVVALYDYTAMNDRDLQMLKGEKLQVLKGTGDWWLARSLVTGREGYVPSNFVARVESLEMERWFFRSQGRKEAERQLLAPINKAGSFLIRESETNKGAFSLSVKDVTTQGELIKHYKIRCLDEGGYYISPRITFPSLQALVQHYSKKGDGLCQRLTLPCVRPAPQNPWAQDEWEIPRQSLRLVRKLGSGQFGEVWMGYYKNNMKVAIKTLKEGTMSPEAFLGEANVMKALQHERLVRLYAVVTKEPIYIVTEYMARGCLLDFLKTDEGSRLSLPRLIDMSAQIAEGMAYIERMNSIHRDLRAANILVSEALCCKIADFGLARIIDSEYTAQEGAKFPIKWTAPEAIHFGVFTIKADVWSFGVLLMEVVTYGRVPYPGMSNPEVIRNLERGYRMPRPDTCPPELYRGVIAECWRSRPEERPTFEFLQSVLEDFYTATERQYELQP

[11] = target: PAS domain-containing serine/threonine-protein kinase (Homo sapiens, UniProt Q96RG2); format: functional
[12] = target: Mitogen-activated protein kinase 8 (Homo sapiens, UniProt P45983); format: functional;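 further: value comes from one member of a kinome-wide kinase profiling panel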
Sequence of Mitogen-activated protein kinase 8 (P45983 whole entry): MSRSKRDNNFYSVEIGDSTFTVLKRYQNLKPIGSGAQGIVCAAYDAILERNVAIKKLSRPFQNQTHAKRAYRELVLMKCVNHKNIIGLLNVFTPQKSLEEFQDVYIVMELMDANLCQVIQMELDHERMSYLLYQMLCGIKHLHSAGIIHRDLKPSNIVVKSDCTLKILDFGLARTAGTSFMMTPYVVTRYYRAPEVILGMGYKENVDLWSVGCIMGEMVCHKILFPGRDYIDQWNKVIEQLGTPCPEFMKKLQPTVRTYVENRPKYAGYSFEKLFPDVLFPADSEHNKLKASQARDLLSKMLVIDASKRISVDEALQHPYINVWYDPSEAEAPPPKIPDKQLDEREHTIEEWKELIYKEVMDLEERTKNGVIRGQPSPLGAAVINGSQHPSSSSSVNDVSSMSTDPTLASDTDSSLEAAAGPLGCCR

[13] = target: Interleukin-1 receptor-associated kinase 1 (Homo sapiens, UniProt P51617); format: functional;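 further: IRAK1 tested as one member of a kinome panel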
Sequence of Interleukin-1 receptor-associated kinase 1 (P51617 whole entry): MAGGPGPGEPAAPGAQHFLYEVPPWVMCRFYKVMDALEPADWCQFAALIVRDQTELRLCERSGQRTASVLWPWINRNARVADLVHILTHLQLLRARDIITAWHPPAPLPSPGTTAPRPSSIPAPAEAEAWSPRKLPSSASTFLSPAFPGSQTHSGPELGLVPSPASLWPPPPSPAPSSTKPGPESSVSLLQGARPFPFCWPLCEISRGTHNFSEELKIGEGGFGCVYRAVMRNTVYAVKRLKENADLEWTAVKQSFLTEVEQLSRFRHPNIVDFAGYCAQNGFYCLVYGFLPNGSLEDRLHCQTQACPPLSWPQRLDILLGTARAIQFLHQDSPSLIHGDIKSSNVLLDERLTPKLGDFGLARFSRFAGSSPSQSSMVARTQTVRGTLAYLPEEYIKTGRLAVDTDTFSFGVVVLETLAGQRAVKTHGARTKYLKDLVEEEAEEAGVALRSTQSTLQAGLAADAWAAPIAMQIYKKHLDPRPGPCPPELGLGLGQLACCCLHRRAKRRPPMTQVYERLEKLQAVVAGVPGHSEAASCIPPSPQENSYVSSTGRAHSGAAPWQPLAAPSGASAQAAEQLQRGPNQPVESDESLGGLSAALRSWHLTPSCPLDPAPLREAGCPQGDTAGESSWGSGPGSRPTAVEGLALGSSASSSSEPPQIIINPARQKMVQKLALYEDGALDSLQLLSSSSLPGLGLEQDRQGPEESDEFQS

[14] = target: MAP kinase-activated protein kinase 2 (Homo sapiens, UniProt P49137); format: functional;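 further: measured as one member of a kinome-wide kinase panel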
Sequence of MAP kinase-activated protein kinase 2 (P49137 whole entry): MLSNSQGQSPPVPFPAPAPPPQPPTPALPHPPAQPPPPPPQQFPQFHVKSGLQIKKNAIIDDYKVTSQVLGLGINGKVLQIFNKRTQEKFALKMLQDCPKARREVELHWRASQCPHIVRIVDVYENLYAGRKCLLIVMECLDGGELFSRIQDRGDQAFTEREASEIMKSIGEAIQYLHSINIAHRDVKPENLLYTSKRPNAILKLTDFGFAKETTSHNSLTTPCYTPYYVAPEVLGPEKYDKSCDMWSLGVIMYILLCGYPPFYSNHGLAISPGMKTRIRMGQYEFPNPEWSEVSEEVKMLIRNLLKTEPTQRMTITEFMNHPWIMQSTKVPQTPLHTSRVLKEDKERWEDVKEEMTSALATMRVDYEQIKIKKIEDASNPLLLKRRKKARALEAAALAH

[15] = target: Maternal embryonic leucine zipper kinase (Homo sapiens, UniProt Q14680); format: functional

SMILES: Cc1cnc(NC(=O)c2sc3ccccc3c2Cl)s1
EC50 [1]: > 67.5 µM (inactive)
EC50 [2]: > 67.5 µM (inactive)
IC50 [3]: 3.78 µM (active)

SMILES: Cc1ccc(Nc2cc(C)nn2-c2nc(C)cc(O)n2)cc1
IC50 [4]: 0.747 µM (active)
EC50 (BJ): 2.94 µM (inconclusive)

SMILES: O=C1C(O)=C/C(=N\c2ccccc2O)c2ccccc21
AC50 [5]: 2.39 µM (active)

Ki [6]: > 0.631 µM (inactive)
Ki (SRSF protein kinase 1): 6.31 µM (active)
Ki [7]: > 1.58 µM (inactive)
Ki [8]: > 7.94 µM (inactive)
Ki [9]: > 3.16 µM (inactive)
Ki [10]: > 1.58 µM (inactive)
Ki [11]: > 1.58 µM (inactive)
Ki [12]: 1 µM (active)
Ki [13]: > 7.94 µM (inactive)
Ki [14]: > 7.94 µM (inactive)
Ki [15]: 0.631 µM (active)
SMILES: O=C1NC(=S)SC1=C1C(=O)Nc2ccc(Br)cc21
